# Test results reported in patent publication US12391737B2, “Soluble NPY2 receptor agonists” (Boehringer Ingelheim International GmbH, priority 2020, dated 2025).
# Columns and labels:
# [1] = target: T1, Human Neuropeptide Y2 Receptor (Homo sapiens, UniProt P49146); assay: Radioligand binding competition assay (RLB); conditions: Table 3, 125I-PYY(1-36) competition; read-out: Ki
# T1 construct: purchased CHEMICON HTS066M
# T1 sequence (P49146 1-381): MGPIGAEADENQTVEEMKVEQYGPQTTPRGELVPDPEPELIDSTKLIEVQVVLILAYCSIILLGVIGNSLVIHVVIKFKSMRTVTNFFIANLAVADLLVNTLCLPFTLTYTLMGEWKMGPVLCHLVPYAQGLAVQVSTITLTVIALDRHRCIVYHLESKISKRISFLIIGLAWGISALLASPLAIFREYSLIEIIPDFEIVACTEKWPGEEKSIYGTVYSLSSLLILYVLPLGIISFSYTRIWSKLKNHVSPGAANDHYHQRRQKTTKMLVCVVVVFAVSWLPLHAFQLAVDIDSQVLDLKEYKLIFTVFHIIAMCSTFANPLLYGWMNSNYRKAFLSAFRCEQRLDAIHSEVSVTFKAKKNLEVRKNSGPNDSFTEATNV
# In short: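 Displacement of radioligand is measured after 2 h at room temperature with receptor membranes in Mg2+/Ca2+ HEPES buffer, pH 7.4. Filter-bound radioactivity is counted and IC50 obtained from curve fitting.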
# Solubility determination = conditions: for Sol6: pH 6; for Sol7: pH 7
# In short: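 Solubility is derived from the ratio of reversed-phase peak areas, filtered sample over a control dissolved at 1 mg/ml in 50% acetonitrile. Peptides are agitated for 2 hours at room temperature in 0.1 M sodium diphosphate at pH 6.4 or 7.0, aiming at 10 mg/ml.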
Compound,Ki [1] [nM],Sol6 (Solubility determination) [mg/mL],Sol7 (Solubility determination) [mg/mL]
"CC(C)CC(=O)N[C@@H](C)C(=O)N1CCC[C@H]1C(=O)N[C@@H](CCC(=O)O)C(=O)N[C@@H](CCCCNC(=O)CCCCCNC(=O)CC[C@H](NC(=O)CCCCCCCCCCCCCCCCC(=O)O)C(=O)O)C(=O)N1CCC[C@H]1C(=O)N[C@@H](CCC(=O)O)C(=O)N[C@@H](CCC(=O)O)C(=O)N[C@@H](CC(=O)O)C(=O)N[C@@H](C)C(=O)N[C@H](C(=O)N1CCC[C@H]1C(=O)N[C@@H](CCC(=O)O)C(=O)N[C@@H](CCC(=O)O)C(=O)N[C@@H](CC(C)C)C(=O)N[C@@H](CCC(N)=O)C(=O)N1CCC[C@H]1C(=O)N[C@@H](Cc1ccc(O)cc1)C(=O)N[C@@H](Cc1ccc(O)cc1)C(=O)N[C@H](C(=O)N[C@@H](CO)C(=O)N[C@@H](CC(C)C)C(=O)N[C@@H](CCCNC(=N)N)C(=O)N[C@@H](Cc1c[nH]cn1)C(=O)N[C@@H](Cc1ccc(O)cc1)C(=O)N[C@@H](Cc1ccc(O)cc1)C(=O)N[C@@H](CC(N)=O)C(=O)N[C@@H](Cc1c[nH]c2ccccc12)C(=O)N[C@@H](CC(C)C)C(=O)N[C@H](C(=O)N[C@@H](CCCNC(=N)N)C(=O)N[C@@H](CCC(N)=O)C(=O)N[C@@H](CCCNC(=N)N)C(=O)N[C@@H](Cc1ccc(O)cc1)C(N)=O)[C@@H](C)O)C(C)C)[C@@H](C)O [Compound 31, N{alpha-4}-(3-methylbutanoyl)-N{epsilon-7}-(6-[(4S)-4-carboxy-4-(17-carboxyheptadecanamido)butanamido]hexanoyl)[4A,7K,9E,13T,18Q,19P,22V,28Y,30W,31L]-hPYY(4-36)]",34.7,>10.0,10.0
"CC(C)CC(=O)N[C@@H](C)C(=O)N1CCC[C@H]1C(=O)N[C@@H](CCC(=O)O)C(=O)N[C@@H](CCCCNC(=O)CCCCCNC(=O)CC[C@H](NC(=O)CCCCCCCCCCCCCCCCC(=O)O)C(=O)O)C(=O)N1CCC[C@H]1C(=O)N[C@@H](CCC(=O)O)C(=O)N[C@@H](CCC(=O)O)C(=O)N[C@@H](CC(=O)O)C(=O)N[C@@H](C)C(=O)N[C@@H](CO)C(=O)N[C@@H](CCC(=O)O)C(=O)N[C@@H](C)C(=O)N[C@@H](CCC(=O)O)C(=O)N[C@@H](CC(C)C)C(=O)N[C@@H](CCC(N)=O)C(=O)N[C@@H](CCCNC(=N)N)C(=O)N[C@@H](Cc1ccc(O)cc1)C(=O)N[C@@H](Cc1ccc(O)cc1)C(=O)N[C@H](C(=O)N[C@@H](CO)C(=O)N[C@@H](CC(C)C)C(=O)N[C@@H](CCCNC(=N)N)C(=O)N[C@@H](Cc1c[nH]cn1)C(=O)N[C@@H](Cc1ccc(O)cc1)C(=O)N[C@@H](Cc1ccc(O)cc1)C(=O)N[C@@H](CC(N)=O)C(=O)N[C@@H](Cc1c[nH]c2ccccc12)C(=O)N[C@@H](CC(C)C)C(=O)N[C@H](C(=O)N[C@@H](CCCNC(=N)N)C(=O)N[C@@H](CCC(N)=O)C(=O)N[C@@H](CCCNC(=N)N)C(=O)N[C@@H](Cc1ccc(O)cc1)C(N)=O)[C@@H](C)O)C(C)C [Compound 80, N{alpha-4}-(3-methylbutanoyl)-N{epsilon-7}-(6-[(4S)-4-carboxy-4-(17-carboxyheptadecanamido)butanamido]hexanoyl)-[4A,7K,9E,14E,15A,18Q,22V,28Y,30W,31L]-hPYY(4-36)]",4.62,8.1,8.2
"CC(C)CC(=O)N[C@@H](C)C(=O)N1CCC[C@H]1C(=O)N[C@@H](CCC(=O)O)C(=O)N[C@@H](CCCCNC(=O)CCCCCNC(=O)CC[C@H](NC(=O)CCCCCCCCCCCCCCCCC(=O)O)C(=O)O)C(=O)N1CCC[C@H]1C(=O)N[C@@H](CCC(=O)O)C(=O)N[C@@H](CCC(=O)O)C(=O)N[C@@H](C)C(=O)N[C@@H](C)C(=O)N[C@@H](CCC(=O)O)C(=O)N1CCC[C@H]1C(=O)N[C@@H](CCC(=O)O)C(=O)N[C@@H](CCC(=O)O)C(=O)N[C@@H](CC(C)C)C(=O)N[C@@H](CCC(N)=O)C(=O)N[C@@H](CCCNC(=N)N)C(=O)N[C@@H](Cc1ccc(O)cc1)C(=O)N[C@@H](Cc1ccc(O)cc1)C(=O)N[C@H](C(=O)N[C@@H](CO)C(=O)N[C@@H](CC(C)C)C(=O)N[C@@H](CCCNC(=N)N)C(=O)N[C@@H](Cc1c[nH]cn1)C(=O)N[C@@H](Cc1ccc(O)cc1)C(=O)N[C@@H](Cc1ccc(O)cc1)C(=O)N[C@@H](CC(N)=O)C(=O)N[C@@H](Cc1c[nH]c2ccccc12)C(=O)N[C@@H](CC(C)C)C(=O)N[C@H](C(=O)N[C@@H](CCCNC(=N)N)C(=O)N[C@@H](CCC(N)=O)C(=O)N[C@@H](CCCNC(=N)N)C(=O)N[C@@H](Cc1ccc(O)cc1)C(N)=O)[C@@H](C)O)C(C)C [Compound 4, N{alpha-4}-(3-methylbutanoyl)-N{epsilon-7}-(6-[(4S)-4-carboxy-4-(17-carboxyheptadecanamido)butanamido]hexanoyl)[4A,7K,9E,11A,13E,18Q,22V,28Y,30W,31L]-hPYY(4-36)]",4.65,10.0,10.0

# The next compounds have a lower Ki [1] than those just listed; values first:
Ki [1] [nM],Sol6 (Solubility determination) [mg/mL],Sol7 (Solubility determination) [mg/mL],Compound
3.39,9.8,10.0,"CC(C)CC(=O)N[C@@H](C)C(=O)N1CCC[C@H]1C(=O)N[C@@H](CCC(=O)O)C(=O)N[C@@H](CCCCNC(=O)CCCCCNC(=O)CC[C@H](NC(=O)CCCCCCCCCCCCCCCCC(=O)O)C(=O)O)C(=O)N1CCC[C@H]1C(=O)N[C@@H](CCC(=O)O)C(=O)N[C@@H](CCC(=O)O)C(=O)N[C@@H](CC(=O)O)C(=O)N[C@@H](CO)C(=O)N[C@@H](CO)C(=O)N1CCC[C@H]1C(=O)N[C@@H](CCC(=O)O)C(=O)N[C@@H](CCC(=O)O)C(=O)N[C@@H](CC(C)C)C(=O)N[C@@H](CCC(N)=O)C(=O)N[C@@H](CCCNC(=N)N)C(=O)N[C@@H](Cc1ccc(O)cc1)C(=O)N[C@@H](Cc1ccc(O)cc1)C(=O)N[C@H](C(=O)N[C@@H](C)C(=O)N[C@@H](CC(C)C)C(=O)N[C@@H](CCCNC(=N)N)C(=O)N[C@@H](Cc1c[nH]cn1)C(=O)N[C@@H](Cc1ccc(O)cc1)C(=O)N[C@@H](Cc1ccc(O)cc1)C(=O)N[C@@H](CC(N)=O)C(=O)N[C@@H](Cc1c[nH]c2ccccc12)C(=O)N[C@@H](CC(C)C)C(=O)N[C@H](C(=O)N[C@@H](CCCNC(=N)N)C(=O)N[C@@H](CCC(N)=O)C(=O)N[C@@H](CCCNC(=N)N)C(=O)N[C@@H](Cc1ccc(O)cc1)C(N)=O)[C@@H](C)O)C(C)C [Compound 24, N{alpha-4}-(3-methylbutanoyl)-N{epsilon-7}-(6-[(4S)-4-carboxy-4-(17-carboxyheptadecanamido)butanamido]hexanoyl)[4A,7K,9E,12S,18Q,22V,23A,28Y,30W,31L]-hPYY(4-36)]"
2.73,10.0,10.0,"CC(C)CC(=O)N[C@@H](C)C(=O)N1CCC[C@H]1C(=O)N[C@@H](CCC(=O)O)C(=O)N[C@@H](CCCCNC(=O)CCCCCNC(=O)CC[C@H](NC(=O)CCCCCCCCCCCCCCCCC(=O)O)C(=O)O)C(=O)N1CCC[C@H]1C(=O)N[C@@H](CCC(=O)O)C(=O)N[C@@H](CCC(=O)O)C(=O)N[C@@H](CC(=O)O)C(=O)N[C@@H](C)C(=O)N[C@@H](CO)C(=O)N1CCC[C@H]1C(=O)N[C@@H](CCC(=O)O)C(=O)N[C@@H](C)C(=O)N[C@@H](CC(C)C)C(=O)N[C@@H](CCC(N)=O)C(=O)N[C@@H](CCC(=O)O)C(=O)N[C@@H](Cc1ccc(O)cc1)C(=O)N[C@@H](Cc1ccc(O)cc1)C(=O)N[C@H](C(=O)N[C@@H](CO)C(=O)N[C@@H](CC(C)C)C(=O)N[C@@H](CCCNC(=N)N)C(=O)N[C@@H](Cc1c[nH]cn1)C(=O)N[C@@H](Cc1ccc(O)cc1)C(=O)N[C@@H](Cc1ccc(O)cc1)C(=O)N[C@@H](CC(N)=O)C(=O)N[C@@H](Cc1c[nH]c2ccccc12)C(=O)N[C@@H](CC(C)C)C(=O)N[C@H](C(=O)N[C@@H](CCCNC(=N)N)C(=O)N[C@@H](CCC(N)=O)C(=O)N[C@@H](CCCNC(=N)N)C(=O)N[C@@H](Cc1ccc(O)cc1)C(N)=O)[C@@H](C)O)C(C)C [Compound 39, N{alpha-4}-(3-methylbutanoyl)-N{epsilon-7}-(6-[(4S)-4-carboxy-4-(17-carboxyheptadecanamido)butanamido]hexanoyl)[4A,7K,9E,16A,18Q,19E,22V,28Y,30W,31L]-hPYY(4-36)]"
1.68,0.0,0.3,"CC(C)CC(=O)N[C@@H](C)C(=O)N1CCC[C@H]1C(=O)N[C@@H](C)C(=O)N[C@@H](CCCCNC(=O)CCCCCNC(=O)CC[C@H](NC(=O)CCCCCCCCCCCCCCCCC(=O)O)C(=O)O)C(=O)N1CCC[C@H]1C(=O)N[C@@H](CCC(=O)O)C(=O)N[C@@H](CCC(=O)O)C(=O)N[C@@H](C)C(=O)N[C@@H](C)C(=O)N[C@@H](CO)C(=O)N1CCC[C@H]1C(=O)N[C@@H](CCC(=O)O)C(=O)N[C@@H](CCC(=O)O)C(=O)N[C@@H](CC(C)C)C(=O)N[C@@H](CCC(N)=O)C(=O)N[C@@H](CCCNC(=N)N)C(=O)N[C@@H](Cc1ccc(O)cc1)C(=O)N[C@@H](Cc1ccc(O)cc1)C(=O)N[C@H](C(=O)N[C@@H](C)C(=O)N[C@@H](CC(C)C)C(=O)N[C@@H](CCCNC(=N)N)C(=O)N[C@@H](Cc1c[nH]cn1)C(=O)N[C@@H](Cc1ccc(O)cc1)C(=O)N[C@@H](Cc1ccc(O)cc1)C(=O)N[C@@H](CC(N)=O)C(=O)N[C@@H](Cc1c[nH]c2ccccc12)C(=O)N[C@@H](CC(C)C)C(=O)N[C@H](C(=O)N[C@@H](CCCNC(=N)N)C(=O)N[C@@H](CCC(N)=O)C(=O)N[C@@H](CCCNC(=N)N)C(=O)N[C@@H](Cc1ccc(O)cc1)C(N)=O)[C@@H](C)O)C(C)C [Compound 157, N{alpha-4}-(3-methylbutanoyl)-N{epsilon-7}-(6-[(4S)-4-carboxy-4-(17-carboxyheptadecanamido)butanamido]hexanoyl)-[4A,6A,7K,9E,11A,18Q,22V,23A,28Y,30W,31L]-hPYY(4-36)]"
